Our source for the IC50 and inhibition values is ChEMBL document CHEMBL5214883, “Comprehensive review for anticancer hybridized multitargeting HDAC inhibitors” (Eur J Med Chem, 2021).

Assay [1] has as its target Histone deacetylase. Briefly: Inhibition of HDAC (unknown origin). In kind it is protein assay, Homo sapiens.
Assay [2] deals with T1, Histone deacetylase 1 (Homo sapiens, UniProt Q13547). Briefly: Inhibition of HDAC1 in human HeLa cell nuclear extract using Bos-Lys(acetyl)-AMC as substrate preincubated for 5 mins followed by substrate addition incubated for 30 mins. It counts as cell-free.
In assay [3] the test system is Epidermal growth factor receptor (Homo sapiens), P00533 [UNDEFINED MUTATION]. Briefly: Inhibition of EGFR T790M (unknown origin) at 1 uM incubated for 40 mins in presence of ATP relative to control.
Assay [4] has as its target Tubulin. Briefly: Inhibition of tubulin polymerization (unknown origin) incubated for 15 mins in presence of GTP by fluorescence-based tubulin polymerization assay kit. It counts as protein-complex assay, Homo sapiens.
In assay [5] the test system is K562. Briefly: Cytotoxicity against human K562 cells.
The test system of assay [6] is DU-145. Briefly: Cytotoxicity against human DU-145 cells.
In assay [7] the target is Histone-lysine N-methyltransferase EZH2 (Homo sapiens, UniProt Q15910). Briefly: Inhibition of EZH2 (unknown origin).
In assay [8] the target is T2, Protein deacetylase HDAC6 (Homo sapiens, UniProt Q9UBN7).
T2 sequence (Q9UBN7 whole entry): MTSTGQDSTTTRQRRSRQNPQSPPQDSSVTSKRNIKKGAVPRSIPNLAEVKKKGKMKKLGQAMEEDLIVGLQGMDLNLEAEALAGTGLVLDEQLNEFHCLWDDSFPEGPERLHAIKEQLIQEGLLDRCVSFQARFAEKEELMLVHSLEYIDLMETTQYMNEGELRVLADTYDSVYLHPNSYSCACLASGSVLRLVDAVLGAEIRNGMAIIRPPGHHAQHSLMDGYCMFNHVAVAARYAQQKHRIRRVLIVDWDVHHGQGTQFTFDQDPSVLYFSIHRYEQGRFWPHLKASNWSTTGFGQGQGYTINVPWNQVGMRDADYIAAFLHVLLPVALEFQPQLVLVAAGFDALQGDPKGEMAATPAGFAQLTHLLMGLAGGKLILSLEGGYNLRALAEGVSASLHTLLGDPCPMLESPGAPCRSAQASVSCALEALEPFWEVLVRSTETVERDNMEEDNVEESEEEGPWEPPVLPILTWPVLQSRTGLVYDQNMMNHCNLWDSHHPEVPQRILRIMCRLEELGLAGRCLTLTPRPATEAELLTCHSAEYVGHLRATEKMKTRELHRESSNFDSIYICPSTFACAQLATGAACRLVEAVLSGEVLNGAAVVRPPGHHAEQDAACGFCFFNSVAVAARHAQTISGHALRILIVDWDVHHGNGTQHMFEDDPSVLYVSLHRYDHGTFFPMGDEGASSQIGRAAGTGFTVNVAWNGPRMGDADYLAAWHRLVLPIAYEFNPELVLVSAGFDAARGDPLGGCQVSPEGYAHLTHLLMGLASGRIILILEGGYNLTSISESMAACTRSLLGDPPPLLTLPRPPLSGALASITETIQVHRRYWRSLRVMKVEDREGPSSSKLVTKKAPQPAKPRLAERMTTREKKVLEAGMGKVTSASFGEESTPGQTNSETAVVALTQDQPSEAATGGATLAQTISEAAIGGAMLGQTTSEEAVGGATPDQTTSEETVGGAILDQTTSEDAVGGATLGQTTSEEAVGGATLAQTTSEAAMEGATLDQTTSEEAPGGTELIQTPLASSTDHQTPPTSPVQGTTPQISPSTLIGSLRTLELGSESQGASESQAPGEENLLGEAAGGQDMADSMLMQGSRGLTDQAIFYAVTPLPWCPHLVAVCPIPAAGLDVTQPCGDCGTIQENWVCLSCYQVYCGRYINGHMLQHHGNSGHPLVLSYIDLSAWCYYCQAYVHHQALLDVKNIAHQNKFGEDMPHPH
Briefly: Inhibition of HDAC6 (unknown origin).

Assay [9] has as its target Histone deacetylase 8 (Homo sapiens, UniProt Q9BY41). Briefly: Inhibition of HDAC8 (unknown origin).
For assay [10], the target named is T1, Histone deacetylase 1. Briefly: Inhibition of HDAC1 (unknown origin) relative to control. The note with it: concentration not given here.
Assay [11] deals with T1, Histone deacetylase 1. Briefly: Inhibition of HDAC1 (unknown origin).
Assay [12] has as its target Bcr/Abl fusion protein (Homo sapiens, UniProt P00519). Briefly: Inhibition of Bcr-Abl (unknown origin). It counts as protein assay.
Assay [13] concerns the target Histone deacetylase. Briefly: Inhibition of HDAC (unknown origin) by H4 Hybrid Multi-Mode Microplate Reade. It counts as protein assay, Homo sapiens.
The test system of assay [14] is MCF7. Briefly: Cytotoxicity against human MCF7 cells. In kind it is functional, cell-based.
Assay [15] concerns the target Vascular endothelial growth factor receptor 2 (Homo sapiens, UniProt P35968). Briefly: Inhibition of VEGFR2 (unknown origin).
Assay [16] concerns SMMC-7721. Briefly: Cytotoxicity against human SMMC-7721 cells. In kind it is functional, cell-based.
Assay [17] addresses cGMP-specific 3',5'-cyclic phosphodiesterase (Homo sapiens, UniProt O76074). Briefly: Inhibition of PDE5 (unknown origin) incubated for 1.5 hrs by IMAP fluorescence polarization phosphodiesterase evaluation assay. On the technique in general: Polarisation of emitted light reports the rotation of a fluorescent probe.
Assay [18] addresses T2, Protein deacetylase HDAC6. Briefly: Inhibition of HDAC-6 (unknown origin) expressed in Escherichia coli BL21 (DE3) in HeLa nuclear extract using Boc-Lys(TFA)-AMC as substrate preincubated for 5 mins followed by substrate addition measured after 30 mins […].

The structures appear in SMILES notation.

T1 sequence (Q13547 whole entry): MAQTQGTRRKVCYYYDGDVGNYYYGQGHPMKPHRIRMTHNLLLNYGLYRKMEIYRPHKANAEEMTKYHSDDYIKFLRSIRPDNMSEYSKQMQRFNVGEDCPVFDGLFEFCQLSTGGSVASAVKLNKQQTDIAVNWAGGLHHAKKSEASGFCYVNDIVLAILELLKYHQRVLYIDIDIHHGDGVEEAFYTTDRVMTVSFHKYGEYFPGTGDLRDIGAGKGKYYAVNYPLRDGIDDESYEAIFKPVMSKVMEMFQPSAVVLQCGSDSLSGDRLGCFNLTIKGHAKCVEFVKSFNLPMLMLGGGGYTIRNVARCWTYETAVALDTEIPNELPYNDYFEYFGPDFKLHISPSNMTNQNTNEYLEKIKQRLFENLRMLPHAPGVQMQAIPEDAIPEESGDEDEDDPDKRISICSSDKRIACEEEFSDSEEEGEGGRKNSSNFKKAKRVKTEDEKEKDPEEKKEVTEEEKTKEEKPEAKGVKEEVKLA
Sequence of Epidermal growth factor receptor (Homo sapiens), P00533 [UNDEFINED MUTATION] (P00533 whole entry, looked up, stated change not applied): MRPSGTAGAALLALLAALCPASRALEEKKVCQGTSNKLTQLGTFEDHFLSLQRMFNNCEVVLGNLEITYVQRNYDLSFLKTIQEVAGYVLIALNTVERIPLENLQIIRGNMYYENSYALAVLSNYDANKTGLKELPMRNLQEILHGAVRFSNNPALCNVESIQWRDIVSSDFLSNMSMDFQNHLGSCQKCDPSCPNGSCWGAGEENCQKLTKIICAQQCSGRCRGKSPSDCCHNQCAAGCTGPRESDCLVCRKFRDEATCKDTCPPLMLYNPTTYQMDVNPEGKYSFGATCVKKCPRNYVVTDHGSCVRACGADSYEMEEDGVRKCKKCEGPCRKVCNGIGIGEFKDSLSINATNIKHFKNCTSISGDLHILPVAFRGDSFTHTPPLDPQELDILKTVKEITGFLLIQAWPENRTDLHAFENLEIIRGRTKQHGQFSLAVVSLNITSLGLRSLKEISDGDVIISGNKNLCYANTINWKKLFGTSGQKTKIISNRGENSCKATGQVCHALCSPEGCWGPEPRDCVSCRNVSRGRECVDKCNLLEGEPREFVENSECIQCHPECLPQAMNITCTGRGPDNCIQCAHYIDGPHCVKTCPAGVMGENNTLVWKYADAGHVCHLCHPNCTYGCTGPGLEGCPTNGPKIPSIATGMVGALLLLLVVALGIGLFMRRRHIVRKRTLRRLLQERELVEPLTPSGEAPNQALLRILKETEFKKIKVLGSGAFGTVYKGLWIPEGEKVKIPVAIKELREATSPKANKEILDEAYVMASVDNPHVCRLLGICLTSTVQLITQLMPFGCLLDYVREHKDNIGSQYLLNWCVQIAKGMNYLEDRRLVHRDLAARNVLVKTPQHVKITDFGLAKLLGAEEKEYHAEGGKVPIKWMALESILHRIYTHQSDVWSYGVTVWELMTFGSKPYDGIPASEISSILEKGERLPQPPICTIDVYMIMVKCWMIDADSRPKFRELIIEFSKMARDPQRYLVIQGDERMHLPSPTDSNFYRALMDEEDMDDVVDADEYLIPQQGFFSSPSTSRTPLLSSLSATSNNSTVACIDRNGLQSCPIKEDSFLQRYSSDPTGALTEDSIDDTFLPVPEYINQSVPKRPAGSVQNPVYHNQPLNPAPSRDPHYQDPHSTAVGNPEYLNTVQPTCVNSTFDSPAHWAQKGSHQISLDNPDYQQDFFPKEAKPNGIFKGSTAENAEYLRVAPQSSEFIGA
Sequence of Histone-lysine N-methyltransferase EZH2 (Q15910 whole entry): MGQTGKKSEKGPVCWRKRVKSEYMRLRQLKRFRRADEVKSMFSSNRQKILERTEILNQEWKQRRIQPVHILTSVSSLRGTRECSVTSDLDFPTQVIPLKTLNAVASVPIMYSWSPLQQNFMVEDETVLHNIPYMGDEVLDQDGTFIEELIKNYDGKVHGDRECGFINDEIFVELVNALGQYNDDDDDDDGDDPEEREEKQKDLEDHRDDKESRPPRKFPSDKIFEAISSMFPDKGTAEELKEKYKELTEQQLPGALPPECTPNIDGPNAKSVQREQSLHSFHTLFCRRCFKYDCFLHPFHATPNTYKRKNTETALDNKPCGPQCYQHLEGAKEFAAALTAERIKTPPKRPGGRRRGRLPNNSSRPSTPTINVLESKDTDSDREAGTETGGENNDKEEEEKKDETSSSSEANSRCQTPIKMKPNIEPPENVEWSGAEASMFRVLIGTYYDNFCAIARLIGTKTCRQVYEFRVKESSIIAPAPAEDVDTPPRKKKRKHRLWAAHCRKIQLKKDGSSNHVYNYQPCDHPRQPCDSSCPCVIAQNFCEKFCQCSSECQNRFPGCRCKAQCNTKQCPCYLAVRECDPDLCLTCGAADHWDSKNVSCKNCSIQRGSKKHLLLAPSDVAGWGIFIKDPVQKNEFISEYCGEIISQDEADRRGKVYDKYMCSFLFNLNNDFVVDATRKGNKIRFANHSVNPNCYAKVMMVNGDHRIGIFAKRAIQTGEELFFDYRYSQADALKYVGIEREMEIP
Sequence of Bcr/Abl fusion protein (P00519 whole entry, the tested form may be a part): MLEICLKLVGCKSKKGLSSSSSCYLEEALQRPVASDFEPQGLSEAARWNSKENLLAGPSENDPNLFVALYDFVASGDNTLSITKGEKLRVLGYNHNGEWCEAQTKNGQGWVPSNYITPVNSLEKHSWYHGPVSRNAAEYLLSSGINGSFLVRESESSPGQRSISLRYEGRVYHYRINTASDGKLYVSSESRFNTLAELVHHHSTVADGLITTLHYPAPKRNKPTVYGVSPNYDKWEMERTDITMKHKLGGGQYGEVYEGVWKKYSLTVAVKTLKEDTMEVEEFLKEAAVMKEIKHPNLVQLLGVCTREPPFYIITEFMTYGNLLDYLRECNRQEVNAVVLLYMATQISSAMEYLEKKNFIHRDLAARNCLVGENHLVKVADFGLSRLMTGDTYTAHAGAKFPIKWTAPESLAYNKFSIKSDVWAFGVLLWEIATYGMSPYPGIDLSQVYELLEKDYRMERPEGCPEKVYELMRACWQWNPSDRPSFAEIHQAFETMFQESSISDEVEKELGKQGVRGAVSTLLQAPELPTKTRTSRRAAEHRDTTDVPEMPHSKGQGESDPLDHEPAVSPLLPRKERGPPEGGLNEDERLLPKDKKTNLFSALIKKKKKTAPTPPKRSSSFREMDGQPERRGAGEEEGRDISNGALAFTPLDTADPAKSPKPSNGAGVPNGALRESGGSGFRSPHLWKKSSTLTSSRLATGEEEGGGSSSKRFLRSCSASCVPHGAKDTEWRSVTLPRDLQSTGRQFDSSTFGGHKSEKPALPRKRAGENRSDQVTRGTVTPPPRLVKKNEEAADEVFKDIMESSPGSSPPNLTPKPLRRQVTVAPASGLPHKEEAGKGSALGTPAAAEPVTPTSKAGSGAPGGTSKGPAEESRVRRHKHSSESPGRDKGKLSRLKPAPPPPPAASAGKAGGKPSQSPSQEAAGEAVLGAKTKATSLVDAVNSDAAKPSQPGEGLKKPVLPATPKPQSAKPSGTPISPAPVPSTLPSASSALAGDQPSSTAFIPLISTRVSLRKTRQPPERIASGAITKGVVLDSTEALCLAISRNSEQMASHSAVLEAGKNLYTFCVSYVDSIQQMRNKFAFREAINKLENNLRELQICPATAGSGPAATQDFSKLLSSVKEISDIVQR
Sequence of Bcr/Abl fusion protein (P11274 whole entry, further chain, the tested form may be a part): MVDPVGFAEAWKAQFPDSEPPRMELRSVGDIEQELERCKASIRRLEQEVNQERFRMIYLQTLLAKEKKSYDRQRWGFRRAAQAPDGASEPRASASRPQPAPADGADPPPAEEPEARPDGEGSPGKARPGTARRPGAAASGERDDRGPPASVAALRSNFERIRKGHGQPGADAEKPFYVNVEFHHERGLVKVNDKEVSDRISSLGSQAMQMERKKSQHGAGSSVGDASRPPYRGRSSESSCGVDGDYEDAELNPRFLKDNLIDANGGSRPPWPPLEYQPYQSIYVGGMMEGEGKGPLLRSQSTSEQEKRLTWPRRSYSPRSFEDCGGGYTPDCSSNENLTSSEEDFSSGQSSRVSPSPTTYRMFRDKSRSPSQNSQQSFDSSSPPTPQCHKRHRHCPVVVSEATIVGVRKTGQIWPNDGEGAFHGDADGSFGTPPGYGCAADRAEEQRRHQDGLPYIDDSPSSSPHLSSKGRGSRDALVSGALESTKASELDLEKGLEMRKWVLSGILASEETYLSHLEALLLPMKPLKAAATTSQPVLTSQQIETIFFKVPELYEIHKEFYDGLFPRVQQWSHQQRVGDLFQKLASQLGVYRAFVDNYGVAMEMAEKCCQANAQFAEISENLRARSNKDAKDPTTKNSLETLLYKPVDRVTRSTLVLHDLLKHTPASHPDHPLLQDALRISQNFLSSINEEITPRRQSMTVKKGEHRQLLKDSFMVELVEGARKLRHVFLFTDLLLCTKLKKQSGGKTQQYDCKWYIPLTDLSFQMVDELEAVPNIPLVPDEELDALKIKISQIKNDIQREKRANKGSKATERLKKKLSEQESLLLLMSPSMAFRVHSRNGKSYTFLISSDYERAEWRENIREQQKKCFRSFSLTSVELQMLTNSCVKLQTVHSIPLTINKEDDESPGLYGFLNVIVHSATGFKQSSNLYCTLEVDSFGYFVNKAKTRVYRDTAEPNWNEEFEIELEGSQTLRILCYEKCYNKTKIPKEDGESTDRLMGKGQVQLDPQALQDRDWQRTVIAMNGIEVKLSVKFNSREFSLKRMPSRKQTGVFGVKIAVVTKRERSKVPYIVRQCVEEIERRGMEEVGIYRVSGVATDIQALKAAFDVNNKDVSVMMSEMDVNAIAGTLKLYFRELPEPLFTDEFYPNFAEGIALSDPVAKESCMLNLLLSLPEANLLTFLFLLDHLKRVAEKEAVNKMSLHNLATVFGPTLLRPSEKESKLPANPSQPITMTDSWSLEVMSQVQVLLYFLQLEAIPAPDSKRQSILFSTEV

One may read the IC50 as the concentration at which inhibition is half-maximal. `CNC(=O)c1cc(Oc2ccc(NC(=O)c3cccnc3)cc2)ccc1N`: the IC50 in assay [1] was determined as 5230 nM.
As a reminder, the inhibition is how much of the control response was suppressed. In [2], `COc1cc(NC(=O)CCCCCC(=O)NO)ccc1Nc1nccc(-c2cn(C)c3ccccc23)n1` returned an IC50 of 121 nM. For the same molecule, the inhibition in assay [3] is 13%.
With `CNC(=O)c1cc(Oc2ccc(NC(=O)c3ccccc3)cc2)ccc1N`, the IC50 in [1] turned out to be 6190 nM.
As to `C[C@H]1COc2c(N3CCN(C)CC3)c(F)cc3c(=O)c(C(=O)NCc4cn(CCCCCCC(=O)NO)nn4)cn1c23`, the IC50 in assay [4] amounted to 1790 nM.
`CNC(=O)c1cc(Oc2ccc(NC(=O)c3ccc(N)cc3)cc2)ccc1N` came in with an IC50 in assay [1] of 2270 nM.
`Nc1ccccc1NC(=O)c1ccc(CNC(=O)OCc2cccnc2)cc1` [ENTINOSTAT]: the IC50 in assay [5] was 21300 nM; in assay [6] it was 3750 nM.
Regarding `Cc1cc(C)c(CNC(=O)c2cnn(-c3ccccc3)c2C)c(=O)[nH]1`, the IC50 in assay [7] came out at 5780 nM.
Regarding `CN(CCOc1no[n+]([O-])c1S(=O)(=O)c1ccccc1)C(=O)c1ccc(/C=C/C(=O)NO)cc1`, the values for the IC50 in assay [8] and in assay [9] were 160 nM and 260 nM, respectively.
Molecule `O=C(CCn1cc(CCn2nc3c(Br)c(Br)c(Br)c(Br)c3n2)nn1)NO` came in with an inhibition in assay [10] of 97%.
For `CNC(=O)c1cc(Oc2ccc(NC(=O)c3ccc(Cl)c(C(F)(F)F)c3)cc2)ccc1N`, in [1], the IC50 turned out to be 1170 nM.
Regarding `CCN1CCN(c2cc(Nc3ncc(C(=O)Nc4ccccc4N)s3)nc(C)n2)CC1`, the IC50 in [11] is 150 nM; in assay [12], 21200 nM; in assay [5], 2560 nM; in [6] it was 5790 nM.
In turn, `O=C(CCCCCN1CC(=O)N2[C@@H](CC3c4ccccc4NC3[C@@H]2c2ccc(Br)cc2)C1=O)NO` (some centres not stated) gave an IC50 in assay [13] of 61.2 nM.
Molecule `CNC(=O)c1cc(Oc2ccc(NC(=O)c3ccc4ccccc4c3)cc2)ccc1N` had an IC50 in [1] of 8210 nM.
`Cc1nc(Nc2ncc(C(=O)Nc3c(C)cccc3Cl)s2)cc(N2CCN(CCO)CC2)n1` [DASATINIB]: the IC50 in [5] was 7440 nM; in assay [6] it was 2430 nM.
In the case of `COc1cc2ncnc(Nc3ccc(Cl)cc3Cl)c2cc1OCCCCCCC(=O)NO`, the IC50 came to 12000 nM in assay [14], 2.8 nM in [1] and 84 nM in assay [15].
In the case of `CC(C)=CCC/C(C)=C\CC/C(C)=C\CSc1ccccc1C(=O)O`, half-maximal inhibition in [16] (IC50) required 66000 nM.
For the molecule `O=C(CCCCCCN1CC(=O)N2[C@H](CC3c4ccccc4NC3[C@H]2c2ccc(Br)cc2)C1=O)NO` (some centres not stated), the IC50 in assay [17] turned out to be 46.2 nM; in [13], 14.2 nM.
Molecule `Cn1cc(-c2ccnc(Nc3ccc(NC(=O)CCCCCC(=O)NO)cc3)n2)c2ccccc21` displayed an IC50 in [2] of 23 nM. Besides, the inhibition in assay [3] came out at 35%.
Consider `O=C(CCCCCNC(=O)c1cccc2cc3ccccc3nc12)NO`, for which, in assay [18], the IC50 stood at 2.3 nM.
As to `O=C(O)CCN1CC(=O)N2[C@H](CC3c4ccccc4NC3[C@H]2c2ccc(Br)cc2)C1=O` (some centres not stated), the IC50 in assay [17] was 2 nM.
In assay [1], `CNC(=O)c1cc(Oc2ccc(NC(=O)c3cccc(N)c3)cc2)ccc1N` registered an IC50 of 1030 nM.
